For this experiment, the species on record is Oryctolagus cuniculus. In words: Vasorelaxant potency in isolated potassium (K(+)-depolarized rabbit thoracic aorta. Type of experiment: functional.
A word on the IC50: it is the concentration that gives 50% inhibition. Low values mean greater potency, high ones weaker potency. `CSC1=NC(c2cccc([N+](=O)[O-])c2)C(C(=O)OC(C)C)=C(C)N1` (stereo not given): the IC50 worked out at 7 nM. This lies in the single-digit nanomolar range.
To `CCOC(=O)C1=C(C)NC(SCCN(C)Cc2ccccc2)=NC1c1cccc([N+](=O)[O-])c1` (stereo not given) belongs 170 nM.
To `CSC1=NC(c2ccccc2C(F)(F)F)C(C(=O)OCCN(C)Cc2ccccc2)=C(C)N1` (stereo not given) belongs over 100000 nM; to `C=CCSC1=NC(c2cccc([N+](=O)[O-])c2)C(C(=O)OCC)=C(C)N1` (stereo not given), 300 nM; to `CCOC(=O)C1=C(C)NC(SC)=NC1c1cccc([N+](=O)[O-])c1` (stereo not given), 130 nM.
To `CSC1=NC(c2cccc(Cl)c2Cl)C(C(=O)OC(C)C)=C(C)N1` (stereo not given) belongs 6 nM.
Molecule `COC(=O)C1=C(C)N=C(SC)NC1c1cccc([N+](=O)[O-])c1` (stereo not given) returned an IC50 of 280 nM. Compared with the last molecule, the IC50 is about 47-fold higher.
In turn, `CCOC(=O)C1=C(C)NC(N(C)C)=NC1c1cccc([N+](=O)[O-])c1` (stereo not given) showed an IC50 of 6100 nM. This IC50 is about 22-fold higher than that of the molecule before.
With `CSC1=NC(c2ccccc2[N+](=O)[O-])C(C(=O)OCCN(C)Cc2ccccc2)=C(C)N1` (stereo not given), the IC50 was determined as 1900 nM.
To `CCC(C)OC(=O)C1=C(C)NC(SC)=NC1c1cccc([N+](=O)[O-])c1` (stereo not given) belongs 9 nM; to `CC1=C(C(=O)OC(C)C)C(c2cccc([N+](=O)[O-])c2)N=C(SCCN(C)C)N1` (stereo not given), 1200 nM; to `CCOC(=O)C1=C(C)NC(SCC)=C(C(=O)OCC)C1c1cccc([N+](=O)[O-])c1` (stereo not given), 4 nM.
To `CCOC(=O)C1=C(C)NC(SC)=NC1c1ccccc1C(F)(F)F` (stereo not given) belongs 36 nM.
The molecule `CSC1=NC(c2cccc([N+](=O)[O-])c2)C(C(=O)OCCN(C)Cc2ccccc2)=C(C)N1` (stereo not given) registered a 50% inhibitory concentration (IC50) of 30 nM.
To `CCOC(=O)C1=C(C)NC(OCC)=C(C(=O)OCC)C1c1cccc([N+](=O)[O-])c1` (stereo not given) belongs 26 nM; to `CCOC(=O)C1=C(C)NC(SC)=NC1c1ccccc1[N+](=O)[O-]` (stereo not given), 300 nM.
To `CCCCCSC1=NC(c2cccc([N+](=O)[O-])c2)C(C(=O)OCC)=C(C)N1` (stereo not given) belongs 180 nM; to `CCOC(=O)C1=C(C)NC(SCc2ccccc2)=NC1c1cccc([N+](=O)[O-])c1` (stereo not given), 190 nM.
To `CCOC(=O)C1=C(C)N=C(OC)NC1c1cccc([N+](=O)[O-])c1` (stereo not given) belongs 710 nM.
For the molecule `CCOC(=O)C1=C(C)NC(SC)=NC1c1cccc(Cl)c1Cl` (stereo not given), it took 16 nM to reach half-maximal inhibition (IC50). Compared with the last molecule, the IC50 is about 44-fold lower.

The record behind these values is ChEMBL document CHEMBL1125160, “Dihydropyrimidine calcium channel blockers: 2-heterosubstituted 4-aryl-1,4-dihydro-6-methyl-5-pyrimidinecarboxylic acid esters as potent mimics of dihydropyridines” (J Med Chem, 1990).
